Data as given in patent publication US20040022834A1, “Pharmaceutical oxan preparation” (priority 2000, published 2004).
Where a name gives a salt, the structure may show the parent alone. Read-outs that look alike come from different tables or passages of the source.

Legend:
[1] = ex vivo permeation on animal skins after pretreatment with a promoter (reference batch CM586); type: in vitro ADME; conditions: ratio of quantity accumulated at 24 h, trial (skin pretreated with promoter) to reference batch CM586; as dexefaroxan base
Source text: FIG. 3 represents the quantities expressed as dexefaroxan base of the accumulated quantities (μg/cm^2); it involves comparing the reference batch CM586 with or without individual pretreatment with promoters.

[2] = type: in vitro ADME
Source text: These values are sufficiently high to make it possible to aim at the daily administration, from a transdermal patch, of a quantity of efaroxan base or hydrochloride in the mg range.
FIG. 4 represents the quantities of idazoxan base and hydrochloride released ex vivo using animal skins, in the case of aqueous alcoholic solutions according to the invention.

Compound	permeation index (PI) [1]	quantities accumulated at 24 hours [2] [mg/cm^2]	quantities accumulated at 24 hours ([2]; 24 h, 10 % m/v) [mg/cm^2]	other results
Sorbitan monooleate	2.6	–	–	–
c1ccc2c(c1)OCC(C1=NCCN1)O2 (stereo not shown) [idazoxan base, 2-(1,4-benzodiosan-2-yl)-2-imidazoline]	–	~5	–	quantities released at 24 h, base form versus hydrochloride [2]: significantly higher
c1ccc2c(c1)OCC(C1=NCCN1)O2 (stereo not shown) [idazoxan hydrochloride, 2-(1,4-benzodiosan-2-yl)-2-imidazoline]	–	–	~0.25	–
Mannitan oleate	2.4	–	–	–
CC[C@]1(C2=NCCN2)Cc2ccccc2O1 [dexefaroxan hydrochloride]	–	–	~1.0	–
CC[C@]1(C2=NCCN2)Cc2ccccc2O1 [dexefaroxan base]	–	~8.5	–	–
